From patent publication US20220089575A1, “FARNESOID X RECEPTOR AGONISTS AND USES THEREOF” (Metacrine, Inc., priority 2017, published 2022)

These compounds were tested against T1, hFXR (Homo sapiens, UniProt Q96RI1) (assay: In Vitro FXR Assay (TK): TK-ECRE-luc reporter in transfected CV-1 cells). Settings: 18 hrs, luminescence, maximum efficacy of <25% of the Fexarmine control classified as '+'.
T1 construct: expressed in transfected cells; host or cells: CV-1 cells
T1 sequence (Q96RI1 1-486): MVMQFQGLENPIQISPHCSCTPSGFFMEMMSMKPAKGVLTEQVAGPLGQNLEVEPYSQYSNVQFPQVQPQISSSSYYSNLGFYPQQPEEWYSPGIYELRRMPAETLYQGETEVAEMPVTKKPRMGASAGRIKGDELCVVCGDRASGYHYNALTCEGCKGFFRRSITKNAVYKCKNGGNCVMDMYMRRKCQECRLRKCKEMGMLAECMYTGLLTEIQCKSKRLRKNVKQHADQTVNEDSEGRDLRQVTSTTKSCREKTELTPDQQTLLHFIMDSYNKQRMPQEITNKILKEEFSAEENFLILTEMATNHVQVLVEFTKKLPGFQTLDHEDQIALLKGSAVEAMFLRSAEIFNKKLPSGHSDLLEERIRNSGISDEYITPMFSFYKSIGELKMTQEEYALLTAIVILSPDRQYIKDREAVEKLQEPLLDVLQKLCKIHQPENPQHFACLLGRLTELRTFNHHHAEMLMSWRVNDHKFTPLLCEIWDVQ
T1 sequence (P19793 1-462 partner): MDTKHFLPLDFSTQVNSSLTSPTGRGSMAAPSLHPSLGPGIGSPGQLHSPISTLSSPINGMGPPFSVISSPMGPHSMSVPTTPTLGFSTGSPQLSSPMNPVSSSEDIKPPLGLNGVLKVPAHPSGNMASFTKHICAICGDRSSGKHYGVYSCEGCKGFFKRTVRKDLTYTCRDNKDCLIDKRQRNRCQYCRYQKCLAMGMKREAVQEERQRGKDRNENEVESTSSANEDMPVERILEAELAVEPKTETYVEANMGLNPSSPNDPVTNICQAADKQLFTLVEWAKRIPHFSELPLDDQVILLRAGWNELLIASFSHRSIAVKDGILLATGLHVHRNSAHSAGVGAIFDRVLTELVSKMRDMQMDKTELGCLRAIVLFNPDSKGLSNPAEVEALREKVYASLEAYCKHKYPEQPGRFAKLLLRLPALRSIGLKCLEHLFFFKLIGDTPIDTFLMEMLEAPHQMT
Assay type: cell-based
How it was run: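 CV-1 cells transiently co-transfected with hFXR, hRXR, TK-ECRE-luc and pCMX-YFP plasmids in charcoal-stripped serum medium. Serially diluted compounds added, cells incubated 18 h at 37° C, then lysed and luminescence read.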

EC50 [nM]	Structure (SMILES)
≤ 250	Cn1nc(F)c2cc([C@H]3CC[C@H](CN(c4cccc(-c5cnn(C6CC6)c5)c4)C(=O)[C@H]4CC[C@H](C(=O)O)CC4)CC3)ccc21 [Compound 17.16, trans-4-((3-(1-Cyclopropyl-1H-pyrazol-4-yl)phenyl)((trans-4-(3-fluoro-1-methyl-1H-indazol-5-yl)cyclohexyl)methyl)carbamoyl) cyclohexanecarboxylic acid]
≤ 250	CNC(=O)O[C@H]1CC[C@H](C(=O)N(C[C@H]2CC[C@H](c3ccc(OC)c(C)c3)CC2)c2cccc(-c3coc(C(C)C)n3)c2)CC1 [Compound 5.30, trans-4-((3-(2-Isopropyloxazol-4-yl)phenyl)((trans-4-(4-methoxy-3-methylphenyl)cyclohexyl)methyl)carbamoyl)cyclohexyl methylcarbamate]
≤ 250	CCC1CN(C(=O)O[C@H]2CC[C@H](C(=O)N(C[C@H]3CC[C@H](c4ccc(OC)c(C)n4)CC3)c3cc(-c4cnn(C(C)C)c4)ccn3)CC2)C1 [Compound 7.54, trans-4-((4-(1-Isopropyl-1H-pyrazol-4-yl)pyridin-2-yl)((trans-4-(5-methoxy-6-methylpyridin-2-yl)cyclohexyl)methyl)carbamoyl)cyclohexyl 3-ethylazetidine-1-carboxylate]
≤ 250	COc1ccc([C@H]2CC[C@H](CN(c3cccc(-c4cnn(C5CC5)c4)c3)C(=O)[C@H]3CC[C@H](CNS(C)(=O)=O)CC3)CC2)cc1C [Compound 26.15, trans-N-(3-(1-Cyclopropyl-1H-pyrazol-4-yl)phenyl)-N-((trans-4-(4-methoxy-3-methylphenyl)cyclohexyl)methyl)-4-(methylsulfonamidomethyl) cyclohexanecarboxamide]
≤ 250	COc1ccc([C@H]2CC[C@H](CN(c3cccc(-c4cnc(C5CC5)s4)c3)C(=O)[C@H]3CC[C@H](C(=O)O)CC3)CC2)cc1Cl [Compound 17.03, trans-4-(((trans-4-(3-Chloro-4-methoxyphenyl)cyclohexyl)methyl)(3-(2-cyclopropylthiazol-5-yl)phenyl)carbamoyl)cyclohexanecarboxylic acid]
≥ 1000	COc1ccc(CO[C@H]2CC[C@H](C(=O)N(C[C@H]3CC[C@H](c4ccc(OC)c(C)c4)CC3)c3cccc(-c4cnc(OC)s4)c3)CC2)cc1 [Compound 18.12, trans-N-((trans-4-(4-Methoxy-3-methylphenyl)cyclohexyl)methyl)-4-((4-methoxybenzyl)oxy)-N-(3-(2-methoxythiazol-5-yl)phenyl) cyclohexanecarboxamide]
≤ 250	COc1ccc([C@H]2CC[C@H](CN(c3cc(-c4cnn(C(C)C)c4)ccn3)C(=O)[C@H]3CC[C@H](OC(=O)N4CC(S(C)(=O)=O)C4)CC3)CC2)nc1C [Compound 6.39, trans-4-((4-(1-Isopropyl-1H-pyrazol-4-yl)pyridin-2-yl)((trans-4-(5-methoxy-6-methylpyridin-2-yl)cyclohexyl)methyl)carbamoyl)cyclohexyl 3-(methylsulfonyl)azetidine-1-carboxylate]
≤ 250	COc1ccc([C@H]2CC[C@H](CN(c3cc(-c4cnn(C(C)C)c4)ccn3)C(=O)[C@H]3CC[C@H](OC(=O)N4CC(O)C4)CC3)CC2)cc1C [Compound 7.16, trans-4-((4-(1-Isopropyl-1H-pyrazol-4-yl)pyridin-2-yl)((trans-4-(4-methoxy-3-methylphenyl)cyclohexyl)methyl)carbamoyl)cyclohexyl 3-hydroxyazetidine-1-carboxylate]
≤ 250	CNC(=O)O[C@H]1CC[C@H](C(=O)N(C[C@H]2CC[C@H](c3ccc(OC)c(C#N)c3)CC2)c2cc(-c3cnn(C(C)C)c3)ccn2)CC1 [Compound 5.18, trans-4-(((trans-4-(3-Cyano-4-methoxyphenyl)cyclohexyl)methyl)(4-(1-isopropyl-1H-pyrazol-4-yl)pyridin-2-yl)carbamoyl)cyclohexyl methylcarbamate]
≤ 250	COc1ccc([C@H]2CC[C@H](CN(c3cc(-c4coc(C5CC5)n4)ccn3)C(=O)[C@H]3CC[C@H](OC(=O)NCCCO)CC3)CC2)nc1C [Compound 6.62]
≤ 250	COc1ccc([C@H]2CC[C@H](CN(c3cccc(-c4cnc(C5CC5)s4)c3)C(=O)[C@H]3CC[C@H](C(=O)OC)CC3)CC2)nc1C#N [Compound 18.09, trans-Methyl 4-(((trans-4-(6-cyano-5-methoxypyridin-2-yl)cyclohexyl)methyl)(3-(2-cyclopropylthiazol-5-yl)phenyl)carbamoyl) cyclohexanecarboxylate]
≤ 250	COc1ccc([C@H]2CC[C@H](CN(c3cccc(-c4coc(C5CC5)n4)c3)C(=O)[C@H]3CC[C@H](OC(=O)NCCO)CC3)CC2)cc1C [Compound 6.46, trans-4-((3-(2-Cyclopropyloxazol-4-yl)phenyl)((trans-4-(4-methoxy-3-methylphenyl)cyclohexyl)methyl)carbamoyl)cyclohexyl (2-hydroxyethyl) carbamate]
≤ 250	COc1ccc([C@H]2CC[C@H](CN(c3cc(-c4coc(C5CC5)n4)ccn3)C(=O)[C@H]3CC[C@H](OC(=O)NCCO)CC3)CC2)cc1C#N [Compound 6.54, trans-4-(((trans-4-(3-Cyano-4-methoxyphenyl)cyclohexyl)methyl)(4-(2-cyclopropyloxazol-4-yl)pyridine-2-yl)carbamoyl)cyclohexyl (2-hydroxyethyl)carbamate]
≤ 250	CCNC(=O)O[C@H]1CC[C@H](C(=O)N(C[C@H]2CC[C@H](c3ccc(OC)c(C#N)n3)CC2)c2cc(-c3cnn(C(C)C)c3)ccn2)CC1 [Compound 5.29, trans-4-(((trans-4-(6-Cyano-5-methoxypyridin-2-yl)cyclohexyl)methyl)(4-(1-isopropyl-1H-pyrazol-4-yl)pyridin-2-yl)carbamoyl)cyclohexyl ethylcarbamate]
≤ 250	CNCC(=O)N[C@H]1CC[C@H](C(=O)N(C[C@H]2CC[C@H](c3ccc(OC)c(C)c3)CC2)c2cccc(-c3cnc(C4CC4)s3)c2)CC1 [Compound 31.08, trans-N-(3-(2-Cyclopropylthiazol-5-yl)phenyl)-N-((trans-4-(4-methoxy-3-methylphenyl)cyclohexyl)methyl)-4-(2-(methylamino)acetamido) cyclohexanecarboxamide]
≤ 250	CCOC(=O)C[C@H]1CC[C@H](C(=O)N(C[C@H]2CC[C@H](c3ccc(OC)c(C)n3)CC2)c2cccc(-c3cnn(C4CC4)c3)c2)CC1 [Compound 14, Ethyl 2-(trans-4-((3-(1-cyclopropyl-1H-pyrazol-4-yl)phenyl)((trans-4-(5-methoxy-6-methylpyridin-2-yl)cyclohexyl)methyl)carbamoyl)cyclohexyl)acetate]
≤ 250	COc1ccc([C@H]2CC[C@H](CN(c3cc(-c4coc(C(C)C)n4)ccn3)C(=O)[C@H]3CC[C@H](OC(=O)N4CC(O)C4)CC3)CC2)nc1C [Compound 7.71, trans-4-((4-(2-Isopropyloxazol-4-yl)pyridine-2-yl)((trans-4-(5-methoxy-6-methylpyridin-2-yl)cyclohexyl)methyl)carbamoyl)cyclohexyl 3-hydroxyazetidine-1-carboxylate]
≤ 250	COc1ccc([C@H]2CC[C@H](CN(c3cccc(-c4coc(C5CC5)n4)c3)C(=O)[C@H]3CC[C@H](NC(C)=O)CC3)CC2)cc1C [Compound 26.19, trans-4-Acetamido-N-(3-(2-cyclopropyloxazol-4-yl)phenyl)-N-((trans-4-(4-methoxy-3-methylphenyl)cyclohexyl)methyl) cyclohexanecarboxamide]
250 to 1000	COc1ccc([C@H]2CC[C@H](CN(c3cc(-c4coc(C5CC5)n4)ccn3)C(=O)[C@H]3CC[C@@H](OC(=O)N4CC(O)C4)CC3)CC2)nc1C [Compound 7.96, 4-(4-(2-Cyclopropyloxazol-4-y)pyridine-2-yl)((4-(5-methoxy-6-methylpyridin-2-yl)cyclohexyl)methyl)carbamoyl) cyclohexyl-cis-3-hydroxyazetidine-1-carboxylate]
≥ 1000	COc1ncc(-c2cccc(N(C[C@H]3CC[C@H](c4ccc(OC)c(C)c4)CC3)C(=O)[C@H]3CC[C@H](CN)CC3)c2)s1 [Compound 25.03, trans-4-(Aminomethyl)-N-((trans-4-(4-methoxy-3-methylphenyl)cyclohexyl)methyl)-N-(3-(2-methoxythiazol-5-yl)phenyl)cyclohexanecarboxamide]
≤ 250	COc1ccc(C23CCC(CN(c4cc(-c5coc(C6CC6)n5)ccn4)C(=O)[C@H]4CC[C@H](CC(=O)O)CC4)(CC2)CC3)cc1C [Compound 21, trans-2-(4-((4-(2-Cyclopropyloxazol-4-yl)pyridin-2-yl)((4-(4-methoxy-3-methylphenyl)bicyclo[2.2.2]octan-1-yl)methyl)carbamoyl)cyclohexyl) acetic acid]
